Results taken from patent US8829197B2, “Salts and polymorphs of desazadesferrithiocin polyether analogues as metal chelation agents” (FerroKin Biosciences, Inc., priority 2008, dated 2014).
Where a name gives a salt, the structure may show the parent alone. Read-outs that look alike come from different tables or passages of the source.

Experiments:
Assay type in all cases: physicochemical
[1] = Relative humidity stress / physical stability on exposure and storage; settings: for physical change when exposed to 75% RH: 75% RH for 3 days; for hygroscopicity (in words): judged from 75% RH exposure
Description: Following isolation, salts were then characterized by one or more standard techniques including but not limited to x-ray powder diffraction (XRPD), single crystal x-ray diffraction (SC-XRD or XRD), nuclear magnetic resonance (NMR), solubility analysis, and stability testing by moisture sorption/desorption stress analysis and differential scanning calorimetry (DSC).

[2] = Approximate solubility (aliquots of solvent, visual inspection)
Description: Weighed samples were treated with aliquots of test solvents at room temperature. Samples were typically sonicated between additions to facilitate dissolution. Complete dissolution of the test material in each solvent was determined by visual inspection. Solubility was estimated based on the total volume of solvent used to provide complete dissolution. The actual solubility may be greater than the value calculated due to the incremental addition of solvent and kinetics of dissolution of the material. […] The solubility is expressed as […] if dissolution occurred after the addition of first aliquot.
Approximate solubilities are calculated based on the total solvent used to give a solution based on visual inspection. Small aliquots of solvent are added to a weighed sample with agitation. Actual solubilities may be greater because of the volume of the solvent portions utilized or a slow rate of dissolution. Solubilities are reported to the nearest mg/mL. Simulated gastric fluid (SGF) was prepared according to the 2008 USP vol. 1, p 817 except without pepsin.
Approximate solubilities are calculated based on the total solvent used to give a solution based on visual inspection. Small aliquots of solvent are added to a weighed sample with agitation. Actual solubilities may be greater because of the volume of the solvent portions utilized or a slow rate of dissolution.

[3] = Moisture sorption/desorption (DVS) analysis; settings: for weight loss during desorption: desorption step, 95% to 5% RH; for hygroscopicity (in words): from DVS data; for weight loss on desorption: between ~95% and ~5% RH; for total weight gain (water uptake): relative humidity from ~5% to ~95% RH
Description: Moisture sorption/desorption (DVS) data were collected on a VTI SGA-100 Vapor Sorption Analyzer. Sorption and desorption data were collected over a range of 5% to 95% relative humidity (RH) at 10% RH intervals under a nitrogen purge. Samples were not dried prior to analysis. Equilibrium criteria used for analysis were less than 0.0100% weight change in 5 minutes, with a maximum equilibration time of 3 hours if the weight criterion was not met. Data were not corrected for the initial moisture content of the samples. NaCl and PVP were used as calibration standards.

[4] = SGF (simulated gastric fluid, without pepsin), Table 14
[5] = Water, salts of (S)-3′-(OH)-DADFT-PE (Table 14)
[6] = water, salts of (S)-3′-(OH)-DADFT-PE
[7] = listed as Tromethamine Salt of (S)-4′-(OH)-DADFT-PE
[8] = Water, salts of (S)-4′-(OH)-DADFT-PE (Table 16)
[9] = water, salts of (S)-4′-(OH)-DADFT-PE
[10] = listed as N-methyl-D-glucamine (NMG) Salt of (S)-4′-(OH)-DADFT-PE
[11] = sorption step from 5% to 95% RH

## zinc (S)-3′-desazadesferrithiocin polyether [Zinc salt of (S)-3′-(OH)-DADFT-PE]
[1]
  physical change when exposed to 75% RH: remained physically unchanged
  hygroscopicity (in words): non-hygroscopic
[2]; [4]
  Approximate Solubility: ≧39 mg/mL
[2]; [5]
  Approximate Solubility: <1 mg/mL
[2]; [6]
  aqueous solubility: ~1 mg/mL

## COCCOCCOCCOc1cccc(C2=N[C@@](C)(C(=O)O)CS2)c1O [magnesium salt Form B, magnesium (S)-2-(2-hydroxy-3-(2-(2-(2-methoxyethoxy)ethoxy)ethoxy)phenyl)-4-methyl-4,5-dihydrothiazole-4-carboxylate hydroxide]
[3]; 5% RH
  weight loss upon equilibrium at 5% RH: 10.8%
[3]; above 65% RH, equilibrium weight not reached
  additional weight gain during sorption: 21.2%
[3]
  weight loss during desorption: 26.6%
  hygroscopicity (in words): hygroscopic
[3]; from 5% to 65% RH
  weight gain during sorption: 5.7%

## COCCOCCOCCOc1ccc(C2=N[C@@](C)(C(=O)O)CS2)c(O)c1 [Tromethamine A, 1,3-dihydroxy-2-(hydroxymethyl)propan-2-aminium (S)-2-(2-hydroxy-4-(2-(2-(2-methoxyethoxy)ethoxy)ethoxy)phenyl)-4-methyl-4,5-dihydrothiazole-4-carboxylate]
[1]; one day relative humidity stress, ~75% RH, elevated temperature
  appearance upon ~75% RH stress at elevated temperature: become oily
[1]; listed as Tromethamine salt candidate
  deliquescence upon ~75% RH stress: no apparent deliquescence
[2]; water, salts of (S)-4′-(OH)-DADFT-PE, listed as Tromethamine salt candidate
  aqueous solubility: > 124 mg/mL
[3]; above ~65% RH
  weight gain above ~65% RH: ~50.3 wt %
[3]; below ~65% RH
  weight gain (water uptake) below ~65% RH: ~1.5 wt %
[3]; [7]
  weight loss on desorption: ~48.4 wt %
  total weight gain (water uptake): ~51.8 wt %
  weight loss upon equilibration at ~5% RH: ~0.7 wt %
[3]
  hygroscopicity (in words): lower hygroscopicity compared to magnesium and NMG salt candidates

## COCCOCCOCCOc1ccc(C2=N[C@@](C)(C(=O)O)CS2)c(O)c1 [Lysine A, 2,6-diammoniohexanoate (S)-2-(2-hydroxy-4-(2-(2-(2-methoxyethoxy)ethoxy)ethoxy)phenyl)-4-methyl-4,5-dihydrothiazole-4-carboxylate]
[1]
  appearance upon ~75% RH stress: became oily
[1]; listed as Lysine salt candidate
  deliquescence upon ~75% RH stress: No apparent deliquescence
[2]; [8]
  solubility: <0.5 mg/mL
[2]; [9]
  aqueous solubility (in words): negligible

## COCCOCCOCCOc1cccc(C2=N[C@@](C)(C(=O)O)CS2)c1O [Magnesium salt of (S)-3′-(OH)-DADFT-PE, magnesium (S)-2-(2-hydroxy-3-(2-(2-(2-methoxyethoxy)ethoxy)ethoxy)phenyl)-4-methyl-4,5-dihydrothiazole-4-carboxylate hydroxide]
[1]; 75% RH for 8 days
  XRPD pattern after exposure to 75% RH: remained unchanged
  deliquescence when exposed to 75% RH: did not deliquesce
[1]
  hygroscopicity (in words): non-hygroscopic
[2]; simulated gastric fluid (SGF) without pepsin, simulated gastric fluid, thermodynamic from solid, SGF (simulated gastric fluid, without pepsin), Table 14, read-out: Approximate Solubility
  solubility: ≥ 50 mg/mL
[2]; water, thermodynamic from solid, Water, salts of (S)-3′-(OH)-DADFT-PE (Table 14), read-out: Approximate Solubility
  solubility: ≥ 48 mg/mL
[2]; water, thermodynamic from solid, water, salts of (S)-3′-(OH)-DADFT-PE, read-out: aqueous solubility
  solubility: ≥ 48 mg/mL

## COCCOCCOCCOc1cccc(C2=N[C@@](C)(C(=O)[O-])CS2)c1O.[Na+] [Sodium salt of (S)-3′-(OH)-DADFT-PE]
[1]
  physical change when exposed to 75% RH: remained physically unchanged
  hygroscopicity (in words): non-hygroscopic
[1]; lyophilized solid, ambient air (~57% RH) for a few minutes
  exposure to ambient air: solids deliquesced

## COCCOCCOCCOc1ccc(C2=N[C@@](C)(C(=O)O)CS2)c(O)c1 [NMG A, 2,3,4,5,6-pentahydroxy-N-methylhexan-1-aminium (S)-2-(2-hydroxy-4-(2-(2-(2-methoxyethoxy)ethoxy)ethoxy)phenyl)-4-methyl-4,5-dihydrothiazole-4-carboxylate]
[1]
  appearance upon ~75% RH stress: became oily
[1]; listed as NMG salt candidate
  deliquescence upon ~75% RH stress: No apparent deliquescence
[2]; [8]
  solubility: 60 mg/mL
[2]; water, salts of (S)-4′-(OH)-DADFT-PE, listed as NMG salt candidate
  aqueous solubility: ~60 mg/mL
[3]; above ~85% RH, listed as N-methyl-D-glucamine (NMG) Salt of (S)-4′-(OH)-DADFT-PE
  additional weight gain above ~85% RH: ~27.0 wt %
[3]; below ~85% RH, listed as N-methyl-D-glucamine (NMG) Salt of (S)-4′-(OH)-DADFT-PE
  weight gain below ~85% RH: ~34.7 wt %
[3]; [10]
  weight loss on desorption: ~60.6 wt %
  total weight gain (water uptake): ~61.7 wt %
  weight loss upon equilibration at ~5% RH: ~0.5 wt %
[3]; listed as NMG salt candidate
  total weight gain (water uptake): ~61.7 wt %

## C1CNCCN1.COCCOCCOCCOc1cccc(C2=N[C@@](C)(C(=O)O)CS2)c1O [piperazine salt of (S)-3′-(OH)-DADFT-PE]
[1]
  physical change when exposed to 75% RH: deliquesced
  hygroscopicity (in words): hygroscopic

## COCCOCCOCCOc1ccc(C2=N[C@@](C)(C(=O)O)CS2)c(O)c1 [Calcium A]
[1]
  deliquescence upon ~75% RH stress: No apparent deliquescence
[2]; 0.1N HCl in water, simulated gastric fluid, thermodynamic from solid, 0.1N HCl in Water, Table 16, read-out: Solubility
  solubility: 3 mg/mL
[2]; [8]
  solubility: <0.5 mg/mL
[2]; [9]
  aqueous solubility (in words): negligible

## COCCOCCOCCOc1cccc(C2=N[C@@](C)(C(=O)[O-])CS2)c1O.[K+] [potassium salt Form A, potassium (S)-3′-desazadesferrithiocin polyether]
[1]; 53% RH for 11 days at room temperature
  form obtained on exposure to 53% RH: Form B
[1]
  physical change when exposed to 75% RH: Complete deliquesce
[2]; ACN, Table 14
  Approximate Solubility: >6 mg/mL
[2]; EtOAc/H2O, Table 14
  Approximate Solubility: >70 mg/mL
[2]; IPA, Table 14
  Approximate Solubility: >68 mg/mL
[2]; MEK, Table 14
  Approximate Solubility: <7 mg/mL
[2]; [4]
  Approximate Solubility: ≧230 mg/mL
[2]; THF, Table 14
  Approximate Solubility: ~ 5 mg/mL
[2]; [5]
  Approximate Solubility: ≧48 mg/mL
[2]; [6]
  aqueous solubility: ≥ 48 mg/mL
[3]
  weight loss during desorption: 63.4%
  hygroscopicity (in words): extremely hygroscopic
[3]; plateau between 45 and 65% RH
  average percentage weight loss at plateau of absorption curve: 8.7%
[3]; [11]
  weight gain during sorption: 67.7%

## COCCOCCOCCOc1cccc(C2=N[C@@](C)(C(=O)[O-])CS2)c1O.[K+] [potassium salt Form B, potassium (S)-3′-desazadesferrithiocin polyether]
[1]; 40° C. for 6 days
  form conversion on exposure to 40° C.: desolvated into a mixture with Form A
[1]; P2O5 for 6 days
  form conversion on exposure to P2O5: converted to a new form, namely Form C
[1]; low humidity (P2O5) or elevated temperature (40° C.)
  physical stability of the form (in words): unstable
[3]
  weight loss during desorption: ~66%
  hygroscopicity (in words): extremely hygroscopic
[3]; plateau between 35 and 65% RH
  average percentage weight gain at plateau of absorption curve: ~8%
[3]; [11]
  weight gain during sorption: ~70%
